The nature of series [1]: MTS tetrazolium reduction cell viability assay. The note with it: rat, rat mesangial cells (1097/IRMC cells), TGF-β1 stimulated, CC50 (μM), vs 1% DMSO vehicle. For orientation: Formazan colour is commonly taken as a measure of viable cells.
Series [2] concerns TGF-β induced [14C]-proline incorporation in rat mesangial cells. As to the kind of experiment: [14C]-proline incorporation assay (collagen biosynthesis). The note with it: Rattus norvegicus, Mesangial cell, 44 h, inhibition of TGF-β1 (1 ng/ml) induced [14C]-proline incorporation, IRMC cells. It counts as cell-based.

One may read the CC50 as the concentration that lowers cell viability or growth by half. Lower therefore signals harm at low concentration. Usually pIC50 stands for the negative decadic logarithm of the IC50, by convention in mol/L.

Structures are written as SMILES. pIC50: −log10 of the molar value. Where a name gives a salt, the structure may show the parent alone.

The molecule `COc1cccc(/C=C/C(=O)Nc2ccccc2C#N)c1OCCN(C)C` [Example 92, (E)-N-(2-cyanophenyl)-3-(2-(2-(dimethylamino)ethoxy)-3-methoxyphenyl)acrylamide] showed a cytotoxic concentration (CC50) at 48 h in series [1] of 109 µM. The molecule also gave a negative logarithm of the IC50 (pIC50) in series [2] of 4.31.

Regarding `COc1ccc(/C=C/C(=O)Nc2cccc(C#N)c2)c(OCCN(C)C)c1` [Example 93, (E)-N-(3-cyanophenyl)-3-(2-(2-(dimethylamino)ethoxy)-4-methoxyphenyl)acrylamide], the CC50 at 48 h in series [1] was 17.2 µM. This molecule also gave a negative-log IC50 (pIC50) in series [2] of 5.28.

`COc1ccc(/C=C/C(=O)Nc2ccccc2C#N)c(OCCN(C)C)c1` [Example 94, (E)-N-(2-cyanophenyl)-3-[2-[2-(dimethylamino)ethoxy]4-methoxy-phenyl]prop-2-enamide] had a half-maximal cytotoxic concentration (CC50) at 48 h in series [1] of 35 µM. In series [2], this molecule gave a negative logarithm of the IC50 (pIC50) of 4.66.

As for `C#CCOc1c(/C=C/C(=O)Nc2ccccc2C(=O)O)ccc(OC)c1OC` [Example 95, (E)-2-(3-(3,4-dimethoxy-2-(prop-2-yn-1-yloxy)phenyl)acrylamido)benzoic Acid], in series [1], the midpoint of cytotoxicity, the CC50 at 48 h, lay at 111 µM. The molecule further gave a pIC50 in series [2] of 4.75.

With `COc1ccc(/C=C/C(=O)Nc2ccccc2C(=O)O)c(OCc2cccnc2)c1OC` [Example 96, (E)-2-(3-(3,4-dimethoxy-2-(pyridin-3-ylmethoxy)phenyl)acrylamido)benzoic Acid], in series [1], the CC50 at 48 h is above 300 µM. In series [2], this molecule had a negative logarithm of the IC50 (pIC50) of 4.47.

Turning to `COc1cc(/C=C/C(=O)Nc2ccccc2C(=O)O)ccc1N1CCN(C)CC1` [Example 97, (E)-2-(3-(3-methoxy-4-(4-methylpiperazin-1-yl)phenyl)acrylamido)benzoic acid], the CC50 at 48 h in series [1] is above 300 µM. Also, in series [2], the pIC50 was 4.34.

Consider `CCc1ccc(/C=C/C(=O)Nc2ccccc2C(=O)O)cc1OC` [Example 100, (E)-2-(3-(4-ethyl-3-methoxyphenyl)acrylamido)benzoic Acid], for which, in series [1], the cytotoxic concentration (CC50) at 48 h turned out to be 37 µM. This molecule showed a pIC50 in series [2] of 5.03.

Turning to `COc1ccc(/C=C/C(=O)Nc2ccccc2C(=O)O)cc1N1CCOCC1` [Example 101, (E)-2-(3-(4-methoxy-3-morpholinophenyl)acrylamido)benzoic Acid], the CC50 at 48 h in series [1] came out at 119 µM. In series [2], this molecule had a negative-log IC50 (pIC50) of 4.77.

`COc1cc(/C=C/C(=O)Nc2ccccc2C(=O)O)ccc1N1CCOCC1` [Example 103, (E)-2-(3-(3-methoxy-4-morpholinophenyl)acrylamido)benzoic acid trifluoroacetic acid salt] returned a half-maximal cytotoxic concentration (CC50) at 48 h in series [1] of 265 µM. For the same molecule, the pIC50 in series [2] was 4.55.

With `CCc1cc(/C=C/C(=O)Nc2ccccc2C(=O)O)ccc1OC` [Example 105, (E)-2-(3-(3-ethyl-4-methoxyphenyl)acrylamido)benzoic acid], the CC50 at 48 h in series [1] is 79.7 µM. In addition, the pIC50 in series [2] was 5.07.

As for `COc1ccc(/C=C/C(=O)Nc2ccccc2C(=O)O)cc1CC1CC1` [Example 106, (E)-2-(3-(3-(cyclopropylmethyl)-4-methoxyphenyl)acrylamido)benzoic acid], the CC50 at 48 h in series [1] is 25.1 µM. The molecule further showed a pIC50 in series [2] of 5.80.

The molecule `CN1Cc2ccc(/C=C/C(=O)Nc3ccccc3C(=O)O)cc2C1=O` [Example 108, (E)-2-(3-(2-methyl-3-oxoisoindolin-5-yl)acrylamido)benzoic acid] showed a 50% cytotoxic concentration (CC50) at 48 h in series [1] above 300 µM. The negative-log IC50 (pIC50) in series [2] is 4.39.

As to `CN1C(=O)COc2cc(/C=C/C(=O)Nc3ccccc3C(=O)O)ccc21` [Example 109, (E)-2-(3-(4-methyl-3-oxo-3,4-dihydro-2H-benzo[b][1,4]oxazin-7-yl)acrylamido)benzoic Acid], in series [1], the 50% cytotoxic concentration (CC50) at 48 h was above 300 µM. Also, in series [2], the negative-log IC50 (pIC50) was 4.62.

As for `CN1CCOc2cc(/C=C/C(=O)Nc3ccccc3C(=O)O)ccc21` [Example 110, (E)-2-(3-(4-methyl-3,4-dihydro-2H-benzo[b][1,4]oxazin-7-yl)acrylamido)benzoic acid], the 50% cytotoxic concentration (CC50) at 48 h in series [1] is above 300 µM. Moreover, the pIC50 in series [2] was 4.86.

As to `O=C(/C=C/c1ccc2c(c1)NC(=O)CO2)Nc1ccccc1C(=O)O` [Example 111, (E)-2-(3-(3-oxo-3,4-dihydro-2H-benzo[b][1,4]oxazin-6-yl)acrylamido)benzoic acid], the half-maximal cytotoxic concentration (CC50) at 48 h in series [1] is above 300 µM. The same molecule showed a negative-log IC50 (pIC50) in series [2] of 4.52.

In series [1], `CN1C(=O)COc2ccc(/C=C/C(=O)Nc3ccccc3C(=O)O)cc21` [Example 112, (E)-2-(3-(4-methyl-3-oxo-3,4-dihydro-2H-benzo[b][1,4]oxazin-6-yl)acrylamido)benzoic acid] showed a cytotoxic concentration (CC50) at 48 h above 300 µM. In addition, the negative-log IC50 (pIC50) in series [2] was 4.89.

Regarding `C#CCOc1ccc(/C=C/C(=O)N2CCOc3ccccc32)cc1CC` [Example 113, (E)-1-(2H-benzo[b][1,4]oxazin-4(3H)-yl)-3-(3-ethyl-4-(prop-2-yn-1-yloxy)phenyl)prop-2-en-1-one], the midpoint of cytotoxicity in series [1], the CC50 at 48 h, lay at 32.6 µM. Besides, the negative logarithm of the IC50 (pIC50) in series [2] is 5.11.

In series [1], `C#CCOc1ccc(/C=C/C(=O)Nc2ccccc2-n2cnc(C)n2)cc1CC` [Example 114, (E)-3-(3-ethyl-4-(prop-2-yn-1-yloxy)phenyl)-N-(2-(3-methyl-1H-1,2,4-triazol-1-yl)phenyl)-acrylamide] came in with a half-maximal cytotoxic concentration (CC50) at 48 h of 82 µM. The molecule also gave a pIC50 in series [2] of 4.85.

In the case of `COc1ccc(/C=C/C(=O)N2CCOc3ccccc32)c(OCCN(C)C)c1OC` [Example 115, (E)-1-(2H-benzo[b][1,4]oxazin-4(3H)-yl)-3-(2-(2-(dimethylamino)ethoxy)-3,4-dimethoxyphenyl)-prop-2-en-1-one], in series [1], the half-maximal cytotoxic concentration (CC50) at 48 h came out at 45.4 µM. The same molecule had a pIC50 in series [2] of 5.15.

As to `COc1ccc(/C=C/C(=O)Nc2cc(Cl)ccc2C(=O)O)c(OCCN(C)C)c1OC` [Example 117, (E)-4-chloro-2-(3-(2-(2-(dimethylamino)ethoxy)-3,4-dimethoxyphenyl)acrylamido)benzoic Acid], the CC50 at 48 h in series [1] is above 300 µM. In addition, in series [2], the negative-log IC50 (pIC50) is 4.67.

For the molecule `COc1cc(/C=C/C(=O)N2CCOc3ccccc32)ccc1OC1CCN(C)C1` (stereo not drawn) [Example 118, (E)-1-(2H-benzo[b][1,4]oxazin-4(3H)-yl)-3-(3-methoxy-4-((1-methylpyrrolidin-3-yl)oxy)phenyl)prop-2-en-1-one], in series [1], the CC50 at 48 h is 25.5 µM. The pIC50 in series [2] is 4.84.

Molecule `C#CCOc1ccc(C2CC2C(=O)N2CCOc3ccccc32)cc1OC` (stereo not drawn) [Example 119, (2H-benzo[b][1,4]oxazin-4(3H)-yl)(2-(3-methoxy-4-(prop-2-yn-1-yloxy)phenyl)cyclopropyl) methanone] returned a CC50 at 48 h in series [1] of 74.8 µM. Besides, the negative-log IC50 (pIC50) in series [2] was 4.61.

Molecule `COc1ccc(C2CC2C(=O)Nc2ccc(F)cc2)c(OCCN(C)C)c1OC` (stereo not drawn) [Example 122, 2-(2-(2-(dimethylamino)ethoxy)-3,4-dimethoxyphenyl)-N-(4-fluorophenyl)cyclopropane-1-carboxamide] had a 50% cytotoxic concentration (CC50) at 48 h in series [1] of 234 µM. Further, in series [2], the pIC50 is 4.77.

Take `C#CCOc1ccc(/C=C/C(=O)Nc2ccccc2F)cc1CC` [Example 123, (E)-3-(3-ethyl-4-(prop-2-yn-1-yloxy)phenyl)-N-(2-fluorophenyl)acrylamide]: the 50% cytotoxic concentration (CC50) at 48 h in series [1] is above 300 µM. Further, the negative-log IC50 (pIC50) in series [2] was 4.71.

As for `C#CCOc1ccc(/C=C/C(=O)Nc2ccc(C#N)cc2)cc1CC` [Example 124, (E)-N-(4-cyanophenyl)-3-(3-ethyl-4-(prop-2-yn-1-yloxy)phenyl)acrylamide], the CC50 at 48 h in series [1] is above 300 µM. For the same molecule, the pIC50 in series [2] is 4.46.

`C#CCOc1ccc(/C=C/C(=O)Nc2ccc(F)cc2)cc1CC` [Example 125, (E)-3-(3-ethyl-4-(prop-2-yn-1-yloxy)phenyl)-N-(4-fluorophenyl)acrylamide] had a CC50 at 48 h in series [1] above 300 µM. The same molecule had a pIC50 in series [2] of 4.75.

Turning to `C#CCOc1ccc(/C=C/C(=O)n2nc(O)c3ccccc32)cc1CC` [Example 126, (E)-3-(3-ethyl-4-(prop-2-yn-1-yloxy)phenyl)-1-(3-hydroxy-1H-indazol-1-yl)prop-2-en-1-one], in series [1], the CC50 at 48 h was above 27.5 µM. The molecule further gave a pIC50 in series [2] of 5.42.

For `COc1ccc(/C=C/C(=O)Nc2ccccc2F)c(OCCN(C)C)c1OC` [Example 127, (E)-3-(2-(2-(dimethylamino)ethoxy)-3,4-dimethoxyphenyl)-N-(2-fluorophenyl)acrylamide], the cytotoxic concentration (CC50) at 48 h in series [1] was 82.9 µM. The molecule also had a pIC50 in series [2] of 4.45.

Take `COc1ccc(/C=C/C(=O)Nc2ccc(F)cc2)c(OCCN(C)C)c1OC` [Example 128, (E)-3-(2-(2-(dimethylamino)ethoxy)-3,4-dimethoxyphenyl)-N-(4-fluorophenyl)acrylamide trifluoroacetic acid salt]: half-maximal cytotoxicity in series [1] (CC50 at 48 h) was put at 24.4 µM. Further, the negative-log IC50 (pIC50) in series [2] is 4.94.

Regarding `COc1ccc(/C=C/C(=O)Nc2ccc(C#N)cc2)c(OCCN(C)C)c1OC` [Example 129, (E)-N-(4-cyanophenyl)-3-(2-(2-(dimethylamino)ethoxy)-3,4-dimethoxyphenyl)acrylamide trifluoroacetic acid salt], half-maximal cytotoxicity in series [1] (CC50 at 48 h) was put at 28.9 µM. Besides, the pIC50 in series [2] was 4.91.

In series [1], `COc1cc(/C=C/C(=O)Nc2ccccc2F)ccc1OC1CCN(C)C1` (stereo not drawn) [Example 130, (E)-N-(2-fluorophenyl)-3-(3-methoxy-4-((1-methylpyrrolidin-3-yl)oxy)phenyl)acrylamide] showed a CC50 at 48 h of 51.8 µM. This molecule had a negative-log IC50 (pIC50) in series [2] of 4.81.

`COc1cc(/C=C/C(=O)Nc2ccc(C#N)cc2)ccc1OC1CCN(C)C1` (stereo not drawn) [Example 131, (E)-N-(4-cyanophenyl)-3-(3-methoxy-4-((1-methylpyrrolidin-3-yl)oxy)phenyl)acrylamide trifluoroacetic acid salt]: it took 17.7 µM to reach half-maximal cytotoxicity in series [1] (CC50 at 48 h). The molecule also showed a pIC50 in series [2] of 4.67.

In series [1], `COc1cc(/C=C/C(=O)Nc2ccc(F)cc2)ccc1OC1CCN(C)C1` (stereo not drawn) [Example 132, (E)-N-(4-fluorophenyl)-3-(3-methoxy-4-((1-methylpyrrolidin-3-yl)oxy)phenyl)actylamide trifluoroacetic acid salt] showed a CC50 at 48 h of 16.6 µM. This molecule showed a pIC50 in series [2] of 4.92.
